Structures are written as SMILES. A value given as a limit tells only on which side of the number the result lay.

In general, IC50 refers to the point on the concentration scale where inhibition reaches its midpoint.

What all share (type): biochemical
One assay concerns the target T1, LATS1 (Homo sapiens, UniProt O95835).
T1 sequence (O95835 1-1130): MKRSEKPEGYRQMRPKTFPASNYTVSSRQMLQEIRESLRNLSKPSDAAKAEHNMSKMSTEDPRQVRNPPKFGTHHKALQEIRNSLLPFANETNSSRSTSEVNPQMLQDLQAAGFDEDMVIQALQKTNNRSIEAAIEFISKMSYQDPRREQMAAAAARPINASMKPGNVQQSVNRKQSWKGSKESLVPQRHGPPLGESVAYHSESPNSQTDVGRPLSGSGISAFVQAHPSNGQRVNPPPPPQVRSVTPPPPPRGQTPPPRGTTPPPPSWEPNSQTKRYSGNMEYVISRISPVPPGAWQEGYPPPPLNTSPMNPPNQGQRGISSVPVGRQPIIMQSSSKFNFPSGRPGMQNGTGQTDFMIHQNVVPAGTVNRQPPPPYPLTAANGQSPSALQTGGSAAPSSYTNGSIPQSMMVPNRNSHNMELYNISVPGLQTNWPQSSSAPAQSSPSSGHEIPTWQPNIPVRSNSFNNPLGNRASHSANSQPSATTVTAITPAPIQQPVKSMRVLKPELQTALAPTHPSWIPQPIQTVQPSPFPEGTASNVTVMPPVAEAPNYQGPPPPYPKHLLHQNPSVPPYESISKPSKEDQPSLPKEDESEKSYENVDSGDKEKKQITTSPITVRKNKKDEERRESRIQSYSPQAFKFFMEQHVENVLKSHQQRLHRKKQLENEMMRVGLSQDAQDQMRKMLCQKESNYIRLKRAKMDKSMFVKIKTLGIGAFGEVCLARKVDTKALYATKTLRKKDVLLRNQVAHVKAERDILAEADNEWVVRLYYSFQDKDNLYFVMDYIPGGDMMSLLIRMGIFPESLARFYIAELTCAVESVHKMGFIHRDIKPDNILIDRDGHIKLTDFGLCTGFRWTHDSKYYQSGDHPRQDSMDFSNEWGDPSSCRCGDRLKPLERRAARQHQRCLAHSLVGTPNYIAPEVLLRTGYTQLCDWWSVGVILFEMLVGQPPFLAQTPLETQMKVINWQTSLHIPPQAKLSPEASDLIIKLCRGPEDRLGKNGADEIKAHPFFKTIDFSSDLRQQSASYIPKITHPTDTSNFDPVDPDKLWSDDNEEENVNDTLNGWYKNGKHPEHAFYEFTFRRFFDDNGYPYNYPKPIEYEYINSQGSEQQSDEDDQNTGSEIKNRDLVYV
Kind of assay: RBC HotSpot kinase assay (33P-ATP, P81 filter-binding), LATS1. The note with it: Table 28, biochemical kinase assay; read-out: LATS1 IC50. The method, then: (§1) Biochemical kinase inhibitory data was obtained for various exemplary compounds prepared according to the above.
(§2) The reagents used are as follows: Base Reaction buffer; 20 mM Hepes (pH 7.5), 10 mM MgCl2, 1 mM EGTA, 0.01% Brij35, 0.02 mg/ml BSA, 0.1 mM Na3VO4, 2 mM DTT, […]. Required cofactors were added individually to each kinase reaction.
(§3) The reaction procedure was as follows: • 1) Substrates were prepared in freshly prepared Reaction Buffer. • 2) Any required cofactors were delivered to the substrate solution above. • 3) Kinase was delivered into the substrate solution and gently mixed. • 4) Compounds were delivered in 100% DMSO into the kinase reaction mixture by Acoustic technology (Echo550; nanoliter range), followed by incubation for 20 min at room temp. • 5) ^33P-ATP was delivered into the reaction mixture to initiate the reaction. • 6) The mixture was incubated for 2 hours at room temperature. • 7) Kinase activity was detected by P81 filter-binding method.
(§4) Using the above functional assay, the inhibitory activity of the compounds for LATS1/2 versus AKT was characterized. The assays were typically run in a 10-point curve, in singlet, to produce a titration curve from which an IC50 value was obtained.
(§5) The reagents used are as follows: Base Reaction buffer; 20 mM Hepes (pH 7.5), 10 mM MgCl2, 1 mM EGTA, 0.01% Brij35, 0.02 mg/ml BSA, 0.1 mM Na3VO4, 2 mM DTT, 1% DMSO. Required cofactors were added individually to each kinase reaction.
(§6) Biochemical kinase inhibitory data was obtained for various exemplary compounds prepared according to the above in accordance with the protocols described in Examples 4 and 8. All biological activities are IC50, in nM.

Another assay addresses AKT (Homo sapiens, UniProt P31749). As to the kind of experiment: RBC HotSpot kinase assay (33P-ATP, P81 filter-binding), AKT. To be noted: Table 28, biochemical kinase assay; read-out: AKT IC50. As for the experimental part:
as §1, §2, §3, §4, §5, §6

The target in a further assay is T2, LATS2 (Homo sapiens, UniProt Q9NRM7).
T2 sequence (Q9NRM7 1-1088): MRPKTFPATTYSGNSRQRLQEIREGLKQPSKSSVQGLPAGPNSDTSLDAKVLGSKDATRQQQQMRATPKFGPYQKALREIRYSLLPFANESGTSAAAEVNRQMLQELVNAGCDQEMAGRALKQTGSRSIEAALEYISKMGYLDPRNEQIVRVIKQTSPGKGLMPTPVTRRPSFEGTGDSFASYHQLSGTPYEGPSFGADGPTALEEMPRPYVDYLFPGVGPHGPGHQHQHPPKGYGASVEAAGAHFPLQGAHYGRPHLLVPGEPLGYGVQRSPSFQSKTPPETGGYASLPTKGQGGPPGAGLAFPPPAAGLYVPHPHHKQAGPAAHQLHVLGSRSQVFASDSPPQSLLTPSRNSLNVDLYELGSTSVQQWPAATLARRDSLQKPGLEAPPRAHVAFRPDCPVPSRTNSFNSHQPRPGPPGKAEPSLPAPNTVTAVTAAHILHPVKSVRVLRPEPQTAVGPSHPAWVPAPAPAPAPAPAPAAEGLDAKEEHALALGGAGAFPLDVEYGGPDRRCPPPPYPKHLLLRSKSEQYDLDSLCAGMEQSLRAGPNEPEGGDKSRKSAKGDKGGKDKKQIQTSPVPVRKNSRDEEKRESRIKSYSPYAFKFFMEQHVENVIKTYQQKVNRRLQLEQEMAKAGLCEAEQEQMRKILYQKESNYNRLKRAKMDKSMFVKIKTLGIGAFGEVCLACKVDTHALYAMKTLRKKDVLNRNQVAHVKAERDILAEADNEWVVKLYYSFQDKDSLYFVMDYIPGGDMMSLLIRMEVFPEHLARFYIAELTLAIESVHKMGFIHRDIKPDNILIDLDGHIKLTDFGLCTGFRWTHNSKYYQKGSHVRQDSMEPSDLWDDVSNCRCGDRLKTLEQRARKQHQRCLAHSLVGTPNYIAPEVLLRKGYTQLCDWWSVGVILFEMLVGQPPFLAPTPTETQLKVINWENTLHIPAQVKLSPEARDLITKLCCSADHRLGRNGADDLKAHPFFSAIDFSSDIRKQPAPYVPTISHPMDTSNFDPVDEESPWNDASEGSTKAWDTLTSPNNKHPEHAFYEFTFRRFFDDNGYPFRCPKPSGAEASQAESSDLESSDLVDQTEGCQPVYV
As to the kind of experiment: RBC HotSpot kinase assay (33P-ATP, P81 filter-binding), LATS2. To be noted: Table 28, biochemical kinase assay; read-out: LATS2 IC50. As for the experimental part:
as §1, §2, §3, §4, §5, §6

AKT, sequence (P31749 whole entry): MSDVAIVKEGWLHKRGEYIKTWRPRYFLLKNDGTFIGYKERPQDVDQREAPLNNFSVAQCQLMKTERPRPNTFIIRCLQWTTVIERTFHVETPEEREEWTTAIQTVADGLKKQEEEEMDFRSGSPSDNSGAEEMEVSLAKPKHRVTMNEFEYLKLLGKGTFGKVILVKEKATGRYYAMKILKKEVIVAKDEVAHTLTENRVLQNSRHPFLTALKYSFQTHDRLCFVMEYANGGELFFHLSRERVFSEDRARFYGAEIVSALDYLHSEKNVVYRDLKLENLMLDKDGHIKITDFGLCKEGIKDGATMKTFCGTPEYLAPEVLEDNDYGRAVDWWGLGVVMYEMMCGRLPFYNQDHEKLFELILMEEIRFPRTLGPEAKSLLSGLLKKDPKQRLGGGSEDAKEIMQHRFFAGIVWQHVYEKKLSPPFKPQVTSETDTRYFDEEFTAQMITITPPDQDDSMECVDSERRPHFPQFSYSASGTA

Regarding `Cc1cc(-c2ccnc3[nH]cc(F)c23)ccc1[C@@]1(O)[C@H](C)CN(C2CCOCC2)C[C@@H]1C` [Compound 27, (3S,4s,5R)-4-(4-(3-fluoro-1H-pyrrolo[2,3-b]pyridin-4-yl)-2-methylphenyl)-3,5-dimethyl-1-(tetrahydro-2H-pyran-4-yl)piperidin-4-ol], the IC50 at LATS1 came out at 1.7 nM; on AKT, 47.9 nM; at LATS2, 2.2 nM.

As to `Cc1cc(-c2ccnc3[nH]cc(F)c23)cc(F)c1C1(O)[C@H](C)CN(C2CCOCC2)C[C@@H]1C` (stereo partly drawn) [Compound 33, (3S,5R)-4-(2-fluoro-4-(3-fluoro-1H-pyrrolo[2,3-b]pyridin-4-yl)-6-methylphenyl)-3,5-dimethyl-1-(tetrahydro-2H-pyran-4-yl)piperidin-4-ol], the IC50 on LATS1 was found to be 3.4 nM; at AKT it was 474 nM; at LATS2 it was 1.9 nM.

As for `Cc1cc(-c2ccnc3[nH]cc(F)c23)cc(F)c1C1(O)[C@H](C)CN(C2CCOC2)C[C@@H]1C` (stereo partly drawn) [Compound 34, (3S,5R)-4-(2-fluoro-4-(3-fluoro-1H-pyrrolo[2,3-b]pyridin-4-yl)-6-methylphenyl)-3,5-dimethyl-1-(tetrahydrofuran-3-yl)piperidin-4-ol], the IC50 at LATS1 was found to be 14.3 nM; at AKT, 908 nM; on LATS2, 8.3 nM.

Regarding `C[C@@H]1CN(C2CCS(=O)(=O)CC2)C[C@H](C)C1(O)c1cnc(-c2ccnc3[nH]cc(F)c23)cc1F` (stereo partly drawn) [Compound 35, 4-((3S,5R)-4-(4-fluoro-6-(3-fluoro-1H-pyrrolo[2,3-b]pyridin-4-yl)pyridin-3-yl)-4-hydroxy-3,5-dimethylpiperidin-1-yl)tetrahydro-2H-thiopyran 1,1-dioxide], the IC50 came out at 99.4 nM at LATS1, 2080 nM on AKT and 63.4 nM on LATS2.

`C[C@@H]1CN(C2COC2)C[C@H](C)C1(O)c1cnc(-c2ccnc3[nH]cc(F)c23)cc1F` (stereo partly drawn) [Compound 36, (3S,5R)-4-(4-fluoro-6-(3-fluoro-1H-pyrrolo[2,3-b]pyridin-4-yl)pyridin-3-yl)-3,5-dimethyl-1-(oxetan-3-yl)piperidin-4-ol]: the results for the half-maximal inhibitory concentration (IC50) at LATS1, on AKT and on LATS2 were 98.5 nM, greater than 1000 nM and 79.6 nM, respectively.

With `C[C@@H]1CN(C)C[C@H](C)[C@@]1(O)c1c(F)cc(-c2ccnc3[nH]cc(F)c23)cc1F` [Compound 37, (3S,4s,5R)-4-(2,6-difluoro-4-(3-fluoro-1H-pyrrolo[2,3-b]pyridin-4-yl)phenyl)-1,3,5-trimethylpiperidin-4-ol], the results for the IC50 on LATS1, at AKT and on LATS2 were 10.1 nM, 477 nM and 8.6 nM, respectively.

Turning to `C[C@@H]1CN(C)C[C@H](C)[C@@]1(O)c1ccc(-c2ccnc3[nH]ccc23)cc1` [Compound 38, (3R,4s,5S)-4-(4-(1H-pyrrolo[2,3-b]pyridin-4-yl)phenyl)-1,3,5-trimethylpiperidin-4-ol], the IC50 was 28 nM at LATS1, 181 nM on AKT and 27 nM at LATS2.

Take `C[C@@H]1CN(C)C[C@H](C)[C@@]1(O)c1ccc(-c2ccnc3[nH]ccc23)nc1` [Compound 40, (3R,4s,5S)-4-(6-(1H-pyrrolo[2,3-b]pyridin-4-yl)pyridin-3-yl)-1,3,5-trimethylpiperidin-4-ol]: the IC50 was found to be 99 nM at LATS1, 1540 nM on AKT and 293 nM on LATS2.

As to `C[C@@H]1CN(C)C[C@H](C)[C@@]1(O)c1ccc(-c2ccnc3[nH]cc(F)c23)cc1F` [Compound 42, (3R,4s,5S)-4-(2-fluoro-4-(3-fluoro-1H-pyrrolo[2,3-b]pyridin-4-yl)phenyl)-1,3,5-trimethylpiperidin-4-ol], the IC50 on LATS1 stood at 9.7 nM; on AKT it was 159 nM; at LATS2 it was 6.7 nM.

Take `Cc1cc(-c2ccnc3[nH]cc(F)c23)ccc1[C@@]1(O)[C@H](C)CN(C)C[C@@H]1C` [Compound 43, (3R,4s,5S)-4-(4-(3-fluoro-1H-pyrrolo[2,3-b]pyridin-4-yl)-2-methylphenyl)-1,3,5-trimethylpiperidin-4-ol]: the values for the concentration for half-maximal inhibition (IC50) on LATS1, at AKT and on LATS2 were 3.2 nM, 63.5 nM and 2.9 nM, respectively.

Take `Cc1cc(-c2ccnc3[nH]cc(F)c23)ncc1[C@@]1(O)[C@H](C)CN(C)C[C@@H]1C` [Compound 44, (3R,4s,5S)-4-(6-(3-fluoro-1H-pyrrolo[2,3-b]pyridin-4-yl)-4-methylpyridin-3-yl)-1,3,5-trimethylpiperidin-4-ol]: the IC50 at LATS1 is 8.9 nM; on AKT it was 1610 nM; on LATS2, 19.6 nM.

As to `CC(C)N1C[C@@H](C)[C@](O)(c2c(F)cc(-c3ccnc4[nH]cc(F)c34)cc2F)[C@@H](C)C1` [Compound 47, (3R,4s,5S)-4-(2,6-difluoro-4-(3-fluoro-1H-pyrrolo[2,3-b]pyridin-4-yl)phenyl)-1-isopropyl-3,5-dimethylpiperidin-4-ol], the results for the IC50 at LATS1, at AKT and on LATS2 were 4.7 nM, 449 nM and 11.2 nM, respectively.

Consider `Cc1cc(-c2ccnc3[nH]cc(F)c23)cc(Cl)c1[C@@]1(O)[C@H](C)CN(C2COC2)C[C@@H]1C` [Compound 49, (3R,4s,5S)-4-(2-chloro-4-(3-fluoro-1H-pyrrolo[2,3-b]pyridin-4-yl)-6-methylphenyl)-3,5-dimethyl-1-(oxetan-3-yl)piperidin-4-ol], for which the IC50 at LATS1 is 697 nM; on AKT, 125 nM; on LATS2 it was 428 nM.

These data come from US20250361230A1, “LATS Inhibitors and Uses Thereof” (The USA, as Represented by the Secretary, Dept. of Heath …, priority 2022, published 2025).
